# Experimental data from patent EP0070803A2, “Antibiotically active aminotriazolylcephalosporin derivatives and their preparation” (CIBA-GEIGY AG, priority 1981, dated 1983).
# Structures can show the parent of a compound that is named as a salt. Where two headings read alike, the source gives them in different places.
# How the values were obtained:
# Escherichia coli 205 [1] = experiment: Antibiotic activity in vitro, agar dilution method (MIC); format: cell-based; details: DST agar
# [2] = tested on: Clostridium perfringens 194; experiment: microbe, parasite or virus in culture; format: cell-based
# [3] = tested on: Staphylococcus aureus 2999i^+p^+; experiment: Antibiotic activity in vitro, agar dilution method (MIC); format: cell-based; details: DST agar
# [4] = tested on: Pseudomonas aeruginosa ATCC 12055; experiment: as above; format: cell-based; details: ATCC12055, DST agar
# [5] = tested on: Haemophilus influenzae NCTC 4560; experiment: as above; format: cell-based; details: DST agar
# [6] = tested on: Staphylococcus aureus 10B; experiment: Chemotherapeutic activity in vivo against systemic infection in mice (ED50); details: systemic infection in female SPF MF2 mice
# Source text: (§1) B. Die chemotherapeutische Wirksamkeit in vivo gegen systemische Infektionen in weiblichen SPF, MF2 Mäusen wurde nach der Methode von Zak., 0., et al., 1979, Drugs Exptl. Clin. Res. 5, 45-59, ermittelt. Die gefundenen ED50-Werte in Milligramm Substanz pro Kilogramm Maus (mg/kg) für eine Anzahl von Mikroorganismen werden für die subcutan (s.c.) applizierten Testverbindungen in der Tabelle 2 angegeben.
# Escherichia coli 205 [7] = experiment: as above; details: s.c., systemic infection in female SPF MF2 mice
# Source text: as §1
# [8] = tested on: Klebsiella pneumoniae 327; experiment: Antibiotic activity in vitro, agar dilution method (MIC); format: cell-based; details: DST agar
# Proteus rettgeri 856 = experiment: as above; format: cell-based; details: Providencia rettgeri, DST agar
# [9] = tested on: Bacteroides fragilis LO 1; experiment: as above; format: cell-based; details: LO1, DST agar
# [10] = tested on: Neisseria meningitidis 1316; experiment: as above; format: cell-based; details: DST agar
# [11] = tested on: Streptococcus pyogenes Aronson; experiment: as above; format: cell-based; details: DST agar
# Proteus mirabilis 774 = experiment: as above; format: cell-based; details: DST agar
# Serratia marcescens 344 = experiment: as above; format: cell-based; details: DST agar
# Proteus morganii 2359 = experiment: Chemotherapeutic activity in vivo against systemic infection in mice (ED50); details: Morganella morganii, sc, systemic infection in female SPF MF2 mice
# Source text: as §1
# [12] = Escherichia coli, 205, agar dilution, read-out: MIC
# [13] = Staphylococcus aureus, read-out: MIC
# [14] = Haemophilus influenzae, NCTC4560, agar dilution, read-out: MIC
# [15] = Klebsiella pneumoniae, 327, agar dilution, read-out: MIC
# [16] = Proteus mirabilis, 774, agar dilution, read-out: MIC
# [17] = Escherichia coli, 205, sc, read-out: ED50
# [18] = Neisseria meningitidis, 1316, agar dilution, read-out: MIC
# [19] = Staphylococcus aureus, 10B, sc, read-out: ED50
# [20] = Serratia marcescens, 344, agar dilution, read-out: MIC
SMILES,MIC (Escherichia coli 205 [1]; [12]) [µg/mL],MIC [2] [µg/mL],"MIC [3, 13] [µg/mL]",MIC [4] [µg/mL],"MIC [5, 14] [µg/mL]","MIC [8, 15] [µg/mL]",MIC (Proteus rettgeri 856) [µg/mL],MIC [9] [µg/mL],MIC [11] [µg/mL],MIC (Proteus mirabilis 774; [16]) [µg/mL],ED50 (Proteus morganii 2359) [mg/kg],ED50 (Escherichia coli 205 [7]; [17]) [mg/kg],"MIC [10, 18] [µg/mL]","ED50 [6, 19] [mg/kg]",MIC (Serratia marcescens 344; [20]) [µg/mL],also measured
"CO/N=C(\C(=O)N[C@@H]1C(=O)N2C(C(=O)O)=C(COC(C)=O)CS[C@H]12)c1nc(N)n(C)n1 [Beispiel 2, 7β-[2-(5-Amino-1-methyl-1H-1,2,4-triazol-3-yl)-2-Z-methoxyimino-acetamino]-3-acetoxymethyl-3-cephem-4-carbonsäure-hydrochlorid]",0.1,0.5,8,128,1,0.1,0.01,8,0.5,0.05,–,–,–,–,–,"ED50 ([6]; s.c.): 10 mg/kg; ED50 (Escherichia coli 205 [7]): 1 mg/kg; MIC ([10]; agar dilution): 0,02 µg/ml; MIC (Serratia marcescens 344; agar dilution): 1 µg/mL"
"CC(=O)OCC1=C(C(=O)O)N2C(=O)[C@@H](NC(=O)Cc3nc(N)n(C)n3)[C@H]2SC1 [Testverbindung 1, 7β-[2-(5-Amino-1-methyl-1H-1,2,4-triazol-3-yl)-acetamino]-3-acetoxymethyl-3-cephem-4-carbonsäure]",32,16,8,–,4,16,32,–,1,128,> 30,> 30,2,–,–,–
"CO/N=C(\C(=O)N[C@@H]1C(=O)N2C(C(=O)O)=C(COC(C)=O)CS[C@H]12)c1nc(N)n(C)n1 [Testverbindung 2, 7ß-[2-(5-Amino-l-methyl-lH-l,2,4-triazol-3-yl)-2-Z-methoxy-imino-acetamino]-3-acetoxymethyl-3-cephem-4-carbonsäure]",–,–,–,–,–,–,–,–,–,–,> 30,–,–,–,–,"MIC (Escherichia coli 205 [1]; agar dilution, listed as 3): 0,05 µg/ml; MIC ([3]; listed as 3): 4 µg/mL; MIC ([5]; agar dilution, listed as 3): 0,5 µg/ml; ED50 ([6]; s.c., listed as 3): >30 mg/kg; ED50 (Escherichia coli 205 [7]; listed as 3): 0,4 mg/kg; MIC ([8]; agar dilution, listed as 3): 0,05 µg/ml; MIC ([10]; agar dilution, listed as 3): 0,1 µg/ml; MIC (Proteus mirabilis 774; agar dilution, listed as 3): 0,1 µg/ml; MIC (Serratia marcescens 344; agar dilution, listed as 3): 0,1 µg/ml"
"CO/N=C(\C(=O)N[C@@H]1C(=O)N2C(C(=O)O)=C(CSc3nnnn3C)CS[C@H]12)c1nc(N)n(C)n1 [Testverbindung 3, 7β-[2-(5-Amino-1-methyl-1H-1,2,4-triazol-3-yl)-2-Z-methoxyimino-acetamino]-3-(1-methyltetrazol-5-yl-thiomethyl)-3-cephem-4-carbonsäure]",0.2,0.2,8,1,8,0.2,0.1,16,1,0.2,50,1.7,0.5,28,0.5,–
"CO/N=C(\C(=O)N[C@@H]1C(=O)N2C(C(=O)[O-])=C(C[n+]3ccc(C(N)=O)cc3)CS[C@H]12)c1nc(N)n(C)n1 [Testverbindung 4, 7β-[2-(5-Amino-1-methyl-1H-1,2,4-triazol-3-yl)-2-Z-methoxyimino-acetamino]-3-(4-carbamoylpyridiniomethyl)-3-cephem-4-carboxylat]",0.1,8,32,–,2,0.1,0.02,4,32,0.1,–,2.5,0.5,–,0.5,–
CO/N=C(\C(=O)N[C@@H]1C(=O)N2C(C(=O)[O-])=C(C[n+]3ccc(C(N)=O)cc3)CS[C@H]12)c1nc(N=CN(C)C)n(C)n1 [Testverbindung 5],32,2,8,128,128,32,8,32,0.5,32,70,> 30,8,55,128,–
